Literature values, collected in US7364905B2, “Apparatus and method for high throughput analysis of compound-membrane interactions” (TechElan, LLC, priority 2001, dated 2008).

Tested on: Caco-2 cells
Conditions: Caco-2 cell mono-layer versus gut

SMILES: OC[C@@H](O)[C@@H](O)[C@H](O)[C@H](O)CO [mannitol]
- rate of permeation through the cell mono-layer relative to through the gut: fifty to three hundred and sixty times lower
